According to US8093259B2, “4-methyl-3-[[4-(3-pyridinyl)-2-pyrimidinyl]amino]-N-[5-(4-methyl-1H-imidazol-1-yl)-3-(trifluoromethyl)phenyl]-benzamide for treatment of melanoma” (Novartis AG, priority 2006, dated 2012):
Where two headings read alike, the source gives them in different places.

How the values were obtained:
[1] = mouse, in vivo, po, 50 mg/kg
Procedure: (§1) Plasma and lung samples were collected. Lung samples were split into two parts, one lobe was further processed for pharmacokinetic analysis, the other lobe was processed for analysis of phosphorylated EphB4 receptor. For controls, one group of animals was treated for 2 h with NMP (10%) PEG (90%).

EphB4 = molecular target: T1, EphB4 (Homo sapiens, UniProt P54760); assay: Cell capture ELISA of EphB4 phosphorylation in stably transfected A375 melanoma cells stimulated with ephrinB2; assay type: cell-based; conditions: two independent experiments
T1 sequence (P54760 16-987): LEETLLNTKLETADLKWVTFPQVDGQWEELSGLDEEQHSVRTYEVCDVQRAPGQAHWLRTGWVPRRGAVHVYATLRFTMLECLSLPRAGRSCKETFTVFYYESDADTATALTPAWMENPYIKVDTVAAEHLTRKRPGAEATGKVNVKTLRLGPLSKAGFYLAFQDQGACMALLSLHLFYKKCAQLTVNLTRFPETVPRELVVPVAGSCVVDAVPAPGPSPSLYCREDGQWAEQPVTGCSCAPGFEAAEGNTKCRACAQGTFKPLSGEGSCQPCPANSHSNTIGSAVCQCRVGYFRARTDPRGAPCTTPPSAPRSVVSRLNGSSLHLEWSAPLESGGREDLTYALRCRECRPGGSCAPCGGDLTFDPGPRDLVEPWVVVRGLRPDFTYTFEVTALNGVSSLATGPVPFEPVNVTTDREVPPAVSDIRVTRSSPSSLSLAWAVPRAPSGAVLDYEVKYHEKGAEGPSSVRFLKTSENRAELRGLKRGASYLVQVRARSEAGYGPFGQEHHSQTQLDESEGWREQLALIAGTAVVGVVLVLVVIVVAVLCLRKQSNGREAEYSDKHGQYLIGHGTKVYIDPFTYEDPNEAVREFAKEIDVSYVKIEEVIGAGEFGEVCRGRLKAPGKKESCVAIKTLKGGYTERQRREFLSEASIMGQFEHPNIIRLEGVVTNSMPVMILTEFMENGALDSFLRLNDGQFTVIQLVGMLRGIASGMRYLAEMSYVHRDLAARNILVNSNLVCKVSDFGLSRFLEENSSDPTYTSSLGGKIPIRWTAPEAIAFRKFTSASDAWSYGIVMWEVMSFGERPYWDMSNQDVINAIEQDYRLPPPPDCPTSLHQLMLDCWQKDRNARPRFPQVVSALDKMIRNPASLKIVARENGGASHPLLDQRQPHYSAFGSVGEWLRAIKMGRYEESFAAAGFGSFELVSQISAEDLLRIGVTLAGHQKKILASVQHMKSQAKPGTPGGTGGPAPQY
Procedure: A cell capture ELISA has been set up to quantify the amount of phosphorylated EphB4 receptor protein in cell extracts. To this purpose, A375 melanoma cells have been stably transfected with full length EphB4 and EphB4 phosphorylation was induced by the addition of the ligand ephrinB2 in the presence of vanadate. Lysates from unstimulated cells were used as negative controls. […] Measurements were done in duplicates and two independent experiments were performed. Cell lysates were prepared and the receptor protein was captured on ELISA plates. Phosphorylated receptor was detected and quantified using alkaline phosphatase coupled anti-phosphotyrosine antibodies.

murine EphB4 kinase = molecular target: T2, murine EphB4 kinase (Mus musculus, UniProt P54761); assay: EphB4 phosphorylation in lung tissue of mice (anti-pY Western blot of immunoprecipitates); assay type: in vivo; conditions: naïve mice, 50 mg/kg p.o.
T2 construct: from tissue; host or cells: mouse lung tissue
T2 sequence (P54761 16-987): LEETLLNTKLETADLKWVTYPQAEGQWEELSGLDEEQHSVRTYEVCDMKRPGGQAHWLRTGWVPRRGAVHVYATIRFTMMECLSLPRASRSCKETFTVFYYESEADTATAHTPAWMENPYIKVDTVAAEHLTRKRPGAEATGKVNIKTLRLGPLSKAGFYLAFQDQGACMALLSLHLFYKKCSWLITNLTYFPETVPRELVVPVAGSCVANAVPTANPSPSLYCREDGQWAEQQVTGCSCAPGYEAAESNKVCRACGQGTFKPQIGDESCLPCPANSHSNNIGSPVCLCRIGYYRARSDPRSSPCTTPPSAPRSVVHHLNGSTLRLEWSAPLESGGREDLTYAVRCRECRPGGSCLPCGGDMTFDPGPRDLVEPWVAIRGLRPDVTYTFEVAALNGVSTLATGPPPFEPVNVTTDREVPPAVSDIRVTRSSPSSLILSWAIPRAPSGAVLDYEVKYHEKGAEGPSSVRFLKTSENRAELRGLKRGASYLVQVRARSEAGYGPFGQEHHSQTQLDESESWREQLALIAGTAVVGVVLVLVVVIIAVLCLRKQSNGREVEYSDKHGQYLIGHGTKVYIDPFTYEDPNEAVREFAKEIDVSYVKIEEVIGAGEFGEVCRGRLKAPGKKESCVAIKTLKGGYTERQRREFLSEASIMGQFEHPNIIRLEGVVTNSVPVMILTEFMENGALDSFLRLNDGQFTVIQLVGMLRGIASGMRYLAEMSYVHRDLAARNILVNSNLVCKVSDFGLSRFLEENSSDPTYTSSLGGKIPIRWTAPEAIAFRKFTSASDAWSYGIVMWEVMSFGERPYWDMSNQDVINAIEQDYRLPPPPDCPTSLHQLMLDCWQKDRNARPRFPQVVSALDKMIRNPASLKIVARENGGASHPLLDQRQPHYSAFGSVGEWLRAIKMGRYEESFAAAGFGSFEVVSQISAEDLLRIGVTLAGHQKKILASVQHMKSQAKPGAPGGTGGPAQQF
Procedure: as §1

- Compound level in lung tissue ([1]; 2 h): 40 to 50 nmol/g
- Compound level in lung tissue ([1]; 24 h): 0.7 nmol/g
- Phosphorylation of EphB4 in lung tissue (murine EphB4 kinase; 2 h after administration): nearly abolished
- Phosphorylation of EphB4 in lung tissue (murine EphB4 kinase; 24 h after administration): recovers to control levels
- Effect on EphB4 protein levels in lung tissue (murine EphB4 kinase; both time points (2 h and 24 h)): No effect
SMILES: Cc1cn(-c2cc(NC(=O)c3ccc(C)c(Nc4nccc(-c5cccnc5)n4)c3)cc(C(F)(F)F)c2)cn1 [4-Methyl-3-[[4-(3-pyridinyl)-2-pyrimidinyl]amino]-N-[5-(4-methyl-1H-imidazol-1-yl)-3-(trifluoromethyl)phenyl] benzamide]
- Inhibition of EphB4 phosphorylation (EphB4): dose dependently inhibited EphB4 phosphorylation
